Data reported in ChEMBL document CHEMBL1147011, “Antimalarial effect of bis-pyridinium salts, N,N'-hexamethylenebis(4-carbamoyl-1-alkylpyridinium bromide)” (Bioorg Med Chem Lett, 2006).

Legend:
Plasmodium falciparum = test: Antimalarial activity against chloroquine-sensitive Plasmodium falciparum FCR3; type: functional, organism-based
FM3A [1] = test: Selectivity ratio of EC50s against Plasmodium falciparum FCR3 to mice (Mus musculus) FM3A cells; type: functional
FM3A [2] = test: Cytotoxicity against mouse FM3A cell line; type: functional, cell-based

Q: With `CCCCCCCC[n+]1ccc(C(=O)NCCCCCCNC(=O)c2cc[n+](CCCCCCCC)cc2)cc1.[Br-].[Br-]` as the compound, how does the EC50 (Plasmodium falciparum) read?
A: Its EC50 is 10 nM.

Q: And the “Ratio EC50” value (FM3A [1])?
A: Its value is 580.

Q: What about the EC50 (FM3A [2]) of the same compound?
A: Its EC50 is 5800 nM.

Q: For `CCCCCCCCCC[n+]1ccc(C(=O)NCCCCCCNC(=O)c2cc[n+](CCCCCCCCCC)cc2)cc1.[Br-].[Br-]`, which EC50 (Plasmodium falciparum) is on record?
A: Its EC50 is 40 nM.

Q: What about the “Ratio EC50” value (FM3A [1]) of the same compound?
A: The value was 11.

Q: And the EC50 (FM3A [2])?
A: Its EC50 is 450 nM.

Q: Which results are given for `CCCCCC[n+]1ccc(C(=O)NCCCCCCNC(=O)c2cc[n+](CCCCCC)cc2)cc1.[Br-].[Br-]`?
A: EC50 (Plasmodium falciparum): 52 nM; Ratio EC50 (FM3A [1]): >333; EC50 (FM3A [2]): > 17300 nM

Q: Which results are given for `CCCCCCCCCCCC[n+]1ccc(C(=O)NCCCCCCNC(=O)c2cc[n+](CCCCCCCCCCCC)cc2)cc1.[Br-].[Br-]`?
A: EC50 (Plasmodium falciparum): 130 nM; Ratio EC50 (FM3A [1]): 3; EC50 (FM3A [2]): 420 nM

Q: `CCCCCCCCCCCCCC[n+]1ccc(C(=O)NCCCCCCNC(=O)c2cc[n+](CCCCCCCCCCCCCC)cc2)cc1.[Br-].[Br-]` was tested. Which EC50 (Plasmodium falciparum) did it give?
A: The EC50 was 1100 nM.

Q: And the “Ratio EC50” value (FM3A [1])?
A: Its value is 3.

Q: And the EC50 (FM3A [2])?
A: The EC50 was 2800 nM.

Q: What does the source list for `CCCCCCCCCCCCCCCC[n+]1ccc(C(=O)NCCCCCCNC(=O)c2cc[n+](CCCCCCCCCCCCCCCC)cc2)cc1`?
A: EC50 (Plasmodium falciparum): 3500 nM; EC50 (FM3A [2]): 2200 nM

Q: With `CCN(CC)CCCC(C)Nc1ccnc2cc(Cl)ccc12` (centres undefined) [CHLOROQUINE] as the compound, how does the “Ratio EC50” value (FM3A [1]) read?
A: Its value is 1800.

Q: `C=C[C@H]1CN2CC[C@H]1C[C@H]2[C@H](O)c1ccnc2ccc(OC)cc12` [QUININE] was tested. Which “Ratio EC50” value (FM3A [1]) did it give?
A: Its value is 910.
